Test results published in patent US20260354378A1, “OIL-IN-WATER EMULSION FORMULATION, A PROCESS FOR ITS PREPARATION AND ITS USE AS HERBICIDE” (priority 2022, published 2026).
Counter-ions that a name gives are not always drawn.

What was measured:
[1] = Solubility in the organic solvent Solvesso 200ND; assay type: physicochemical; conditions: room temperature
Description: (§1) As a preliminary step, solubility tests were performed to determine the ability of Aminopyralid potassium salt used as herbicide B to dissolve in the organic solvent Solvesso 200ND and the oil phase of the emulsion disclosed in US 2011/0092367 A1, page 11, paragraphs [0141] and [0142].
The solubility was measured in a test tube at room temperature. 0.10 g of Aminopyralid potassium salt was placed in the test tube. First, 1 g of the organic solvent (Solvesso 200 ND) was added. The amount of the organic solvent (Solvesso 200 ND) was then increased in several steps to 10 g. […] The solubility of Aminopyralid Potassium salt in Solvesso 200ND was visually determined to be less than 1%.

[2] = Solubility in the oil phase of the emulsion of US 2011/0092367 A1; assay type: physicochemical; conditions: Solvesso 200 ND, Wettol EM 1, Wettol EM 31 per Table 9
Description: as §1
The organic solvent (Solvesso 200 ND), calcium dodecylbenzene sulfonate (Wettol EM 1) and castor oil ethoxylate (Wettol EM 31) were mixed in the amounts given in Table 9. After mixing, it was not soluble in said mixture. After further adding dimethenamid-P in the amount given in Table 9, solubility of the Aminopyralid potassium salt could not be increased. In summary, Aminopyralid potassium salt (herbicide B) was not soluble in the oil phase of the emulsion as disclosed in US 2011/0092367 A1 (see page 11, paragraphs [0141] and [0142]).

Nc1cc(Cl)nc(C(=O)O)c1Cl [Aminopyralid potassium salt, 4-amino-3,6-dichloro-2-pyridinecarboxylic acid]
Solubility in Solvesso 200 ND (visual observation) ([1]; 0.10 g in 1 g to 10 g solvent, magnetic stirrer): poor solubility | Solubility in Solvesso 200ND ([1]; visually determined): less than 1% | Solubility in the oil phase of the emulsion of US 2011/0092367 A1 [2]: not soluble
